Structures are written as SMILES.

Data set [1] concerns patients with symptomatic knee OA. Description: single group, open-label study of weekly intra-articular injections in outpatients with symptomatic knee OA. Type of data set: in vivo, human. Conditions: for WOMAC score: baseline 5±2, p<0.001. The procedure: The efficacy of treatment was determined by a validated clinical test method and side effects recorded. This was a single group, open-label study, including outpatients of both sexes, aged between 18 and 85 years, with symptomatic knee OA. All patients (25) underwent weekly intra-articular injections of perfluorodecalin for 5 consecutive weeks and were followed-up for 10 additional weeks. The safety and tolerability profile (primary end-point) was assessed by adverse event reporting. The secondary endpoint was efficacy evaluated by changes in the Western Ontario and McMaster Universities (WOMAC) score vs. baseline. Patient and physician satisfaction were also recorded.

The conditions of data set [2]: cited from earlier work.
For data set [3] the following is noted: cited from earlier work. The source holds these as a separate data set.

Regarding `FC1(F)C(F)(F)C(F)(F)C2(F)C(F)(F)C(F)(F)C(F)(F)C(F)(F)C2(F)C1(F)F` (centres unmarked) [Perfluorodecalin], the “serious treatment-related adverse events” value in data set [1] (25 patients, 5 weekly intra-articular injections, 10 additional weeks follow-up) is “no serious treatment-related adverse events were reported”. In addition, the “most frequent adverse event: pain at the injection site” value in data set [1] (25 patients, weekly intra-articular injections for 5 consecutive weeks) is recorded as 10 % of the injections. For the same compound, the “duration of relief of pain, on average” value in data set [1] (after intra-articular injection) is reported as “one week”. Besides, the “carry-over effect after the last injection” value in data set [1] (based on sustained improvements in WOMAC score and subscores) is recorded as “at least 3 weeks”. In data set [1] (end of the injection series, week 6), this compound came in with a WOMAC score of 2±1.5. The “WOMAC subscore 'pain'” value in data set [1] (from week 4) is listed as “significantly reduced”. Also, in data set [1] (from week 6), the “WOMAC subscore 'physical function'” value was “significantly reduced” and the “WOMAC subscore 'stiffness'” value is listed as “significantly reduced”. The “safety and tolerability profile” value in data set [1] (intra-articular, adverse event reporting) was “generally well tolerated”. For the same compound, the WOMAC score in data set [1] (within the first 2 weeks of treatment) was 3±2. In addition, the “solubility in water and in traditional organic solvents” value in data set [2] is given as “insoluble”. For the same compound, in data set [3] (37° C.), the “Vapor pressure at 37° C.” value is listed as 14 mm Hg. In data set [3], the CO2 solubility is on record as 1400 mL/L and the O2 solubility is reported as 490 mL/L.

(Values after patent US20070142480A1, “Alleviation of pain in osteoarthritis by means of intra-articular implantation of perfluorodecalin” (priority 2005, published 2007).)
